Measurements published in US20040076659A1, “Additive for livestock feeds” (priority 1994, published 2004).

Tests used:
[1] = tested on: rumen microbial proteinases; assay: Protease activity of mixed rumen microbial cell enzyme source (casein substrate); format: biochemical, cows
Experimental: Two rumen-fistulated, nonlactating cows averaging 623±12.5 kg in weight were fed 5 kg dry matter (DM) of low quality timothy hay twice daily. About 2.5L of rumen fluid was collected through the fistula 4 hrs after the morning feeding at 07:00 hrs. Bulk feed particles were removed by sieving the fluid through a 0.5 mm strain. The fluid was then composited and then stored in a prewarmed (37° C.) thermal container.
A microbial powder was prepared using the acetone-butanol extraction procedure outlined by Mahadevan et al., “Preparation of protease from mixed rumen microorganisms and its use for the in vitro determination of true protein in feedstuffs,” Can. J. Anim. Sci. 67:55 (1987). About 500 g of this powder was prepared and stored at −20° C. Extraction of the proteases was accomplished by stirring 250 g of the powder with 1L of 4° C. cold water (for 1 hr) and then proceeding along Mahadevan's extraction procedure. Only extracts from the filtration with an XM-300 Amicon Filter, (approx. 300 000 molecular weight cutoff—under nitrogen gas), were made, washed twice with distilled water and the retentate freeze dried. This was referred to as the mixed microbial cell enzyme source. It was used in the protein adhesion tests and also in the parallel thiol and protease activity determinations.
Ten grams of the mixed microbial cell enzyme was dissolved in 100 ml warm (37° C.) 0.1 M phosphate buffer, pH 6.8, and used as an enzyme inoculant. The assay matrix consisted of 1 ml enzyme source, 1 ml 2% casein solution, 1 ml 01 M phosphate buffer and 1 ml of either the relevant level of surfactant or an equivalent amount of buffer. Ten levels of the two surfactants, polyoxyethylene sorbitan monoleate (Tween 80) and polyoxyethylene sorbitan monastearate (Tween 60) were tested, viz 0, 0.08, 0.16, 0.24, 0.32, 0.4, 0.8, 1.2, 1.6, and, 2.0% surfactant in the assay mixture.
The protease activity incubations were performed in 50 ml plastic centrifuge tubes, at 37° C. and under a stream of carbon dioxide gas. After 1.5 hr, 1 ml of the assay mixture was removed for the determination of thiols (SH) and disulfides (SS) (Sasago et al., “Determination of sulfhydryl and disulfide groups in milk by p-chloromercuribenzoate-diathizone method,” J. Dairy Sci. 46:1348-1351 (1963)). At the end of 2 hr incubation, the reaction was stopped with 1 ml of 15% TCA (trichloroacetic acid) solution, cooled to 4° C. under an icebath, and centrifuged at 10,000 for 10 min. The free amino acids in the supernatant were assayed using the ninhydrin method (Rosen, “a Modified Colorimetric Analysis For Amino Acids,” Arch. Biochim. Biophys. 67:10 (1957)). The optimal surfactant inclusion level was calculated by direct linear plots on the assumption that the Michaellis-Menten equation applied.

rumen cellulase activity = assay: In vitro cellulose degradation by rumen bacterial inoculum; format: biochemical, cows; conditions: 0.25% surfactant in reaction mixture; regression on initial 24 hr
Experimental: A bacterial fraction, largely free of protozoa, was prepared for the fermentation assays by using the procedure of Forsberg, “Some Effects of Arsenic on the Rumen Microflora; An In Vitro Study,” Can. J. Microbiol. 24:36 (1978). The digesta inoculum was resuspended and washed twice in an equivalent amount of 0.1 M phosphate buffer pH 6.8 to the rumen fluid. The inoculum provided both, the substrate and the enzyme used for cellulose degradation assay. Incubation periods were 0, 1.5, 3, 6, 12, 24, and 48 hr. Other incubation conditions were similar to those outlined in experiment 1 above. However, cellulose was determined by the method of Updergraff, supra, for the in vivo digestibility trial. The optimal level of Tween 80 obtained was adopted here and followed.

[2] = In vitro true digestibility (IVTD) of orchardgrass hay, Ankom in vitro system, 22 h
Experimental: The carriers were celite (Fisher Scientific Co. New Jersey, USA), diatomaceous earth (Sigma Chemical Co. St. Louis, Mo.) and LuctaCarrier (Lucta, S. A. Barcelona, Spain). Tween 80 was mixed with the carriers such that the resulting mixture contained 50% Tween 80 (wt/wt). The ability of Tween 80 in these mixtures to improve digestive efficiency was evaluated in vitro with orchardgrass hay that had been ground to pass through a 1 mm screen. Treatments included 0 (control), 0.1 and 0.2% liquid Tween 80, 0.1 and 0.2% Tween 80 in diatomaceous earth, 0.1 and 0.2% Tween 80 in celite, and 0.1 and 0.2% Tween 80 in LuctaCarrier. Appropriate quantities of each substrate were mixed with the additives and incubated in the Ankom in vitro system (Ankom Technology Fairport NY) for 22 h.

dairy cows = assay: Two levels of Tween 80, milk production and feed intake in cows under heat stress (Example 5); format: in vivo, Holstein; conditions: for Drop in milk production: week 11 (heat stress)
Description: Seventy-five dairy cows of the Holstein breed were ranked according to lactation number, days in milk and production level and placed into three equal groups. Treatments were then randomly assigned to individual animals within the groups. There were 25 animals in each dietary treatment group. Cows were offered ad libitum access to a total mixed ration (TMR) based on grass silage, corn silage, grass hay and a commercial dairy concentrate. The treatments consisted of:
Treatment 1—Control diet (TMR).
Treatment 2—TMR containing 0.2% (w/w) Tween 80, and
Treatment 3—TMR containing 0.3% (w/w) Tween 80.
The experiment lasted 12 weeks. All cows were fed the control diet during the first week. This period served as a pretrial week. Cows in each treatment group were then fed their experimental diets for ten weeks. Milk production and feed intake were, monitored from the first week (pretrial) until the 12th week (one week after the experimental diets were withdrawn).
Ambient temperatures exceeded 40° C. during weeks 10 and 11 of the experiment resulting in considerable heat stress in the cows. Milk production and feed intake data are discussed in the light of the heat stress.

[3] = direct linear plots, Michaelis-Menten assumed
[4] = first calf heifers, 0.2% Tween 80, second week of heat stress

## polyoxyethylene sorbitan monoleate [Tween 80]
[1]; control=0
  Initial rate of proteinase activation: 163.5%
[1]; [3]
  Km (additive conc.), proteinase activation: 0.20 ± 0.03b %
  Vmax (maximum proteinase activation): 166.8 ± 8.9b %/unit additive conc.
Rumen cellulase activity
  Initial rate of cellulose degradation: 1.04c (0.32) μg/ml/hr
[2]; 0.1% Tween 80
  In vitro true digestibility (IVTD): 54.20%
[2]; 0.2% Tween 80
  In vitro true digestibility (IVTD): 54.93%
Dairy cows; 0.2% Tween 80, first 30 d
  Weight gain: 1 kg
Dairy cows; 0.2% Tween 80, first week of heat stress
  Depression in dry matter intake: 3.4%
Dairy cows; 0.2% Tween 80, last 60 days
  Weight gain: 9 kg
Dairy cows; 0.2% Tween 80, second week of heat stress
  Depression in dry matter intake: 14.4%
Dairy cows; 0.2% Tween 80
  Drop in milk production: 23.6%
Dairy cows; 0.3% Tween 80, first 30 d
  Weight gain: 2.5 kg
Dairy cows; 0.3% Tween 80, first week of heat stress
  Depression in dry matter intake: 6.0%
Dairy cows; 0.3% Tween 80, last 60 days
  Weight gain: 4.5 kg
Dairy cows; 0.3% Tween 80, second week of heat stress
  Depression in dry matter intake: 12.6%
Dairy cows; 0.3% Tween 80
  Drop in milk production: 22%
Dairy cows; Tween 80 treatments (0.2 and 0.3%), first week of heat stress (week 10)
  Fall in milk production: about 11%
Dairy cows; first calf heifers, 0.2% Tween 80
  More milk than control, on average: 2 kg/day
Dairy cows; [4]
  Increase in milk over control: 13.6%
  More milk than control: more than 3.6 kg/day
Dairy cows; mature cows, 0.2% Tween 80
  More milk than control, on average: 3.54 kg/day
Dairy cows; mature cows, 0.3% Tween 80
  More milk than control, on average: 3.98 kg/day
